Measured values reported in patent publication US20050086710A1, “Method for generating recombinant human platelets for identifying therapeutic target proteins” (priority 2002, published 2005).

Columns and labels:
[1] = test system: stem cell-derived platelets after infection with Ad-GFP; assay: ELISA, release of β-thromboglobulin, platelets after infection with Ad-GFP; assay type: cell-based; settings: thrombin vs basal
From the text: (§1) Modified (E1/E3-deficient) flag-tagged adenoviruses for novel transgenes were generated that for expressing a transgene and green fluorescence protein (GFP) under control of two independent CMV promoters in a bi-cistronic system (He T C, Zhou S, da Costa L T, Yu J, Kinzler K W, Vogelstein B. A simplified system for generating modified adenoviruses. Proc Natl Acad Sci USA. 1998; 95:2509-14, purchased from Q Biogene, Heidelberg, Germany). As a control, Ad-GFP without further transgene was used. Large virus stocks were prepared and purified by centrifugation via cesium chloride density gradients. Adenoviral titers were determined using plaque titration and GFP expression titration in […] cells. • 1) Megakaryocytes were harvested at day 8-11 after isolation using a wide sterile single-use pipette and spun down in a 15 mL Falcon-tube at 1650 rpm for 8 min. • 2) The supernatant was discarded and the pellet resuspended in Opimem (at 4×10^5 cells/300 μL). • 3) Adenovirus was added to each well of a 24 well-plate for infection (multiplicity of infection (MOI) of 400 plaque forming units per cell). • 4) Cells were added and mixed by shaking, incubated for 30 min at 37° C. at 5% CO2, then • 5) spun down at 1000 rpm, 20° C. for 10 min. […]

[2] = test system: freshly isolated platelets; assay: ELISA, release of PDGF, freshly isolated platelets; assay type: cell-based, human
Protocol: (§2) Freshly drawn blood from human volunteers was transferred into a Falcon tube and spun down for 20 min. at 1080 rpm at 20° C. The supernatant yielded the PRP (platelet-rich-plasma) and was transferred to a new tube and diluted 1:4 with wash-buffer (1×PBS (w/o CA^2+ Mg^+) with 0.1% sodium azide, pH 7.2+/−0.2, filtered through a 0.2 μm filter prior to use and stored at 4° C.). The mixture was spun down for 10 min. at 2100 rpm at 20° C. The pellet was resuspended in staining buffer (1×PBS (w/o CA^2+ Mg^+) with 0.1% sodium azide and 2% fetal bovine serum) in a volume of 40 μl.
(§3) ELISA Assays for β-thromboglobulin (Asserachrom β-TG, Roche Diagnostics, Mannheim, Germany) and platelet-derived growth factor (PDGF; PDGF-AB Immunoassay, Qiagen, Hilden, Germany) were performed according to the manufacturers' instructions. By using these assays, the thrombin dependent release of both mediators from platelets was assessed.

[3] = test system: stem cell-derived platelets; assay: ELISA, thrombin dependent release of PDGF, stem cell-derived platelets; assay type: cell-based
Protocol: as §3

[4] = test system: stem cell-derived platelets after infection with Ad-GFP; assay: ELISA, release of PDGF, platelets after infection with Ad-GFP; assay type: cell-based; settings: thrombin vs basal
From the text: as §1

[5] = test system: freshly isolated platelets; assay: ELISA, release of β-thromboglobulin, freshly isolated platelets; assay type: cell-based, human; settings: thrombin, amount not stated (basal 59±6)
Protocol: as §2, §3

[6] = test system: stem cell-derived platelets; assay: ELISA, thrombin dependent release of β-thromboglobulin, stem cell-derived platelets; assay type: cell-based
Protocol: as §3

[7] = test system: megakaryocyte-derived platelets; assay: FACS measurement of platelet surface markers after activation, megakaryocyte-derived platelets; assay type: cell-based, human; design: unit not given here; settings: TRAP 25 μM or ADP 5 or 20 μM, 10 min
Protocol: (§4) Then, the mixture was spun down for 5 min. at 1800 rpm (in a tabletop centrifuge). The supernatant was discarded, 300-400 μL staining-buffer were added. FACS measurements were done immediately. For the following studies, antibodies against the following antigens were used: [table] The antibodies were coupled to the following fluorescence systems, where appropriate (either directly or via secondary antibodies) and measured by fluorescence-activated cell sorting (FACS): [table] Platelets which co-expressed the transgene GFP were gated for this marker by studying FITC fluorescence, and the same measurements were then exclusively related to this gate.

[8] = test system: freshly isolated human platelets; assay: FACS measurement of platelet surface markers after activation, freshly isolated platelets; assay type: cell-based; design: CD 41 (FACS) / CD 61 (FACS) / CD42b (FACS) / CD62P (FACS): unit not given here; settings: TRAP 25 μM or ADP 5 or 20 μM, 10 min
Protocol: as §4, with “Freshly drawn blood from human volunteers was transferred into a Falcon tube and spun down for 20 min. at 1080 rpm at 20° C. […] The mixture was spun down for 10 min. at 2100 rpm at 20° C. The pellet was resuspended in staining buffer (1×PBS (w/o CA^2+ Mg^+) with 0.1% sodium azide and 2% fetal bovine serum) in a volume of 40 μl. […] Then,” for “Then,”, “(FACS): […]” for “(FACS): [table]”

[9] = test system: modified platelets expressing GFP; assay: FACS measurement of platelet surface markers after activation, modified platelets expressing GFP; assay type: cell-based, human; settings: gated for GFP, TRAP 25 μM or ADP 5 or 20 μM
From the text: Modified (E1/E3-deficient) flag-tagged adenoviruses for novel transgenes were generated that for expressing a transgene and green fluorescence protein (GFP) under control of two independent CMV promoters in a bi-cistronic system (He T C, Zhou S, da Costa L T, Yu J, Kinzler K W, Vogelstein B. A simplified system for generating modified adenoviruses. Proc Natl Acad Sci USA. 1998; 95:2509-14, purchased from Q Biogene, Heidelberg, Germany). As a control, Ad-GFP without further transgene was used. Large virus stocks were prepared and purified by centrifugation via cesium chloride density gradients. Adenoviral titers were determined using plaque titration and GFP expression titration in […] cells. • 1) Megakaryocytes were harvested at day 8-11 after isolation using a wide sterile single-use pipette and spun down in a 15 mL Falcon-tube at 1650 rpm for 8 min. • 2) The supernatant was discarded and the pellet resuspended in Opimem (at 4×10^5 cells/300 μL). • 3) Adenovirus was added to each well of a 24 well-plate for infection (multiplicity of infection (MOI) of 400 plaque forming units per cell). • 4) Cells were added and mixed by shaking, incubated for 30 min at 37° C. at 5% CO2, then • 5) spun down at 1000 rpm, 20° C. for 10 min.
• 1) Platelets were harvested by centrifugation at 1800 rpm for 1¼ min at 20° C.; the supernatant was diluted 1:1 with platelet wash buffer (1×PBS (w/o CA^2+ Mg^+) with 0.1% sodium azide (pH 7.2+/−0.2)). • 2) They were filtered through a 0.2 μm filter prior to use, stored at 4° C. and spun down at 1800 rpm for 5 min. • 3) The supernatant was discarded. ≈1 mL was left in the tube and washed again with staining buffer (1×PBS (w/o CA^2+Mg^+) with 0.1% sodium azide and 2% fetal bovine serum (FBS) and stored at 4° C. • 4) The supernatant was completely discarded. • 5) The pellet was resuspended in platelet-staining-buffer ([…]). • 6) 20 μL of the activators thrombin receptor activating peptide (TRAP; 25 μM), ADP (5 or 20 μM) or thrombin (2 U/ml) were added. 35 μL of the fibrinogen receptor binding peptide RGD or its negative control, RED, were added where indicated. • 7) The mixture was incubated for 10 min. at room temperature in the dark. • 8) Antibodys were added directly (in a volume of 7 μL each except for LIBS-FITC at 3.5 μL) and incubated for 20-30 min. at room temperature in the dark. • 9) 500-600 μL platelet staining buffer was added. Then, the mixture was spun down for 5 min. at 1800 rpm (in a tabletop centrifuge). The supernatant was discarded, 300-400 μL staining-buffer were added. FACS measurements were done immediately.
For the following studies, antibodies against the following antigens were used:
The antibodies were coupled to the following fluorescence systems, where appropriate (either directly or via secondary antibodies) and measured by fluorescence-activated cell sorting (FACS):
Platelets which co-expressed the transgene GFP were gated for this marker by studying FITC fluorescence, and the same measurements were then exclusively related to this gate.

| Compound | CD 41 (FACS) [7] | CD42b (FACS) [7] | CD 61 (FACS) [7] | CD62P (FACS) [7] | CD 41 (FACS) [8] | CD42b (FACS) [8] | CD 61 (FACS) [8] | CD62P (FACS) [8] | PAC-1 (FACS) [8] | CD 41 (FACS) [9] | CD42b (FACS) [9] | CD 61 (FACS) [9] | CD62P (FACS) [9] | PAC-1 (FACS) [9] | other results |
| --- | --- | --- | --- | --- | --- | --- | --- | --- | --- | --- | --- | --- | --- | --- | --- |
| thrombin | – | – | – | – | – | – | – | – | – | – | – | – | – | – | increase in βTG release [1]: four-fold; release of PDGF ([2]; 0.2 U thrombin (basal 214±11)): 566 ± 10 pg/mL; release of PDGF ([2]; 1 U thrombin (basal 214±11)): 664 ± 12 pg/mL; release of PDGF ([3]; 0.2 U thrombin (basal 280±95)): 590 ± 22 pg/mL; release of PDGF ([3]; 2 U thrombin (basal 280±95)): 610 pg/mL; increase of PDGF release [4]: 123±7%; Release of β-thromboglobulin [5]: 115±10 U/ml; Release of β-thromboglobulin ([6]; 0.2 U thrombin (basal 52±19)): 219±11 U/ml; Release of β-thromboglobulin ([6]; 2 U thrombin (basal 52±19)): 250±92 U/ml |
| thrombin receptor activating peptide [TRAP] | 248 ± 23 | 75 ± 41 | 75 ± 14 | 138 ± 69 | 99 ± 25 | 40 ± 2 | 19 ± 4.8 | 162 ± 50 | 122 ± 34 | 213 ± 34 | 81 ± 29 | 325 ± 73 | 299 ± 146 | 178 ± 41 | – |
| Nc1ncnc2c1ncn2[C@@H]1O[C@H](COP(=O)(O)OP(=O)(O)O)[C@@H](O)[C@H]1O [ADP] | 258 ± 24 | 46 ± 25 | 76 ± 9.5 | 121 ± 61 | 92 ± 37 | 58 ± 15 | 16 ± 6 | 75 ± 18 | 90 ± 26 | 216 ± 18 | 95 ± 63 | 333 ± 78 | 314 ± 153 | 198 ± 10 | – |
